Laboratory results reported in US5981530A, “Piperazine derivative” (Senju Pharmaceutical Co., Ltd., priority 1995, dated 1999).
Counter-ions that a name gives are not always drawn.

Tested on: rat palpebral PCA reaction
Experiment: Passive cutaneous anaphylactic (PCA) reaction of the rat palpebra
Assay type: in vivo, rat (male Wistar)
Details: 100 mg/5 ml/kg oral, 60 min prior to induction of PCA; for Degree of Inhibition (%): vs negative control
Experimental: Effect of the compound of the invention on the passive cutaneous anaphylactic (PCA) reaction of the rat palpebra
The effect of the compound of the invention on rat palpebral PCA reaction was investigated.
Male Wistar rats weighing about 120 g were purchased from Japan SLC for the experiment.
Using a microsyringe, 25 μl of antiserum (32-fold dilution) was injected beneath the palpebral conjunctiva of the right eye of rats under pentobarbital anesthesia. Forty-eight (48) hours after injection of antiserum, a mixture of 2% chicken egg albumin and 1% Evans blue, 5 ml/kg, was administered into the tail vein to induce PCA reaction. Thirty (30) minutes after induction, the rat was sacrificed and the stained portion of the palpebral conjunctiva of the right eye was excised. The dye was extracted into 5 ml of formamide, and the amount of the dye was determined at 625 nm.
The test substance, 100 mg/5 ml/kg, was administered orally 60 minutes prior to induction of PCA reaction.
As a negative control, 5 ml/kg of 0.5% carboxymethylcellulose (CMC) was administered orally. As a positive control, 100 mg/5 ml/kg of diphenhydramine hydrochloride, a commercial antihistaminic, was administered orally.

[1] = Table 1, mean ± SD (n = 5), negative control 0.662 ± 0.112, *1 p < 0.05, *2 p < 0.001
[2] = Table 1, n = 5, *1 p < 0.05, *2 p < 0.001

Compound	Absorbance (extracted dye, 625 nm) [1]	Degree of Inhibition (%) [2] [%]	Absorbance (extracted dye, 625 nm) (Table 2, mean ± SD (n = 6), negative control 0.486 ± 0.093, *1 p < 0.001)	Degree of Inhibition (%) (Table 2, n = 6, *1 p < 0.001)
CN(C)CCOC(c1ccccc1)c1ccccc1 [Diphenhydramine HCl, diphenhydramine hydrochloride, reference compound]	0.413 ± 0.126	37.6		
COc1ccc(OCC(O)CN2CCN(c3ccccc3C(=O)O)CC2)c(C(C)(C)C)c1 (stereo not drawn) [Example 1, 3-[4-(2-Carboxyphenyl)piperazinyl]-1-(2-tert-butyl-4-methoxyphenoxy)propan-2-ol]	0.299 ± 0.056	54.8		
O=C(O)c1ccccc1N1CCN(CC(O)COc2cccc3[nH]ccc23)CC1 (stereo not drawn) [Example 5, 3-[4-(2-Carboxyphenyl)piperazinyl]-1-(1H-indol-4-yloxy)propan-2-ol]			0.276 ± 0.048	43.2
